Experimental findings from PubChem BioAssay AID384 (SGCOxCompounds, 2006) are described below.

Sequence of Casein kinase I isoform gamma-2 (Homo sapiens) (P78368 whole entry, looked up, canonical isoform): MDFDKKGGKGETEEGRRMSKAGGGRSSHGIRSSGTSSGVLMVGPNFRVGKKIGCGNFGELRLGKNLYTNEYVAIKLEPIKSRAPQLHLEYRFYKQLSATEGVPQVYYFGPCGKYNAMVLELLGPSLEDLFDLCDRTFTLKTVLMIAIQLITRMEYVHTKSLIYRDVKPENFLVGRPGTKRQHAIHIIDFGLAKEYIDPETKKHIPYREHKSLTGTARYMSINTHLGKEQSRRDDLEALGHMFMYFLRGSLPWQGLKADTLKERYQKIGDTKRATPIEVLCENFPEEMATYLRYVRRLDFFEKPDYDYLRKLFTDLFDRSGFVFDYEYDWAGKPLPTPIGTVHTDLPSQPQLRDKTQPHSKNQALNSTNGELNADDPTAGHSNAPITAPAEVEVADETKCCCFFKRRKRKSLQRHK

The first test addresses Casein kinase I isoform gamma-2 (Homo sapiens) (UniProt P78368). Nature of the test: ligand binding to human CK1 gamma-2 kinase – biophysical, DSF, SYPRO orange, recombinant protein (AID 384). Conditions: recombinant CSNK1G2, DSF thermal shift, at 10 µM, protein 2 µM, buffer 10 mM HEPES, NaCl 100 mM, stronger effect = higher value.
Consider `COc1cc(/C=C/C(=O)CC(=O)/C=C/c2ccc(O)c(OC)c2)ccc1O`, for which the Tm shift was 4.92 Celsius. Same read-out and setting: next, `NC1=N/C(=C2\CCNC(=O)c3[nH]ccc32)C(=O)N1`: 3.67 Celsius. As for `COc1cc(O)c2c(c1)oc(=O)c1c3cc(O)c(O)cc3oc21`, the Tm shift is 5.16 Celsius. Same read-out and setting: the same measure for `O=c1cc(-c2ccc(O)c(O)c2)oc2cc(O)cc(O)c12`: 4.55 Celsius. With `CCN(CC)CCNC(=O)c1c(C)[nH]c(/C=C2\C(=O)Nc3ccc(Cl)cc32)c1C`, the Tm shift was 4.06 Celsius. The same measure, in the same setting: next, `CC(C)C(CO)Nc1nc(Nc2cccc(Cl)c2)c2ncn(C(C)C)c2n1` (configuration not stated): 4.92 Celsius; `CC(C)n1cnc2c(Nc3cccc(Cl)c3)nc(NCCO)nc21`: 5.58 Celsius.

Turning to `NC1=N/C(=C2/CCNC(=O)c3[nH]c(Br)cc32)C(=O)N1`, the Tm shift was 8.12 Celsius.

With `O=c1c(O)c(-c2ccc(O)c(O)c2)oc2cc(O)ccc12`, the Tm shift is 3.19 Celsius.

In the case of `Clc1ccc(Nc2ncc(-c3cn[nH]c3)n3ccnc23)cc1`, the Tm shift was 3.76 Celsius.

In the case of `Nc1ncnc2c1c(I)cn2[C@@H]1O[C@H](CO)C(O)C1O` (some centres not stated), the Tm shift was 4.69 Celsius.

In the case of `CCn1cnc2c(Nc3cccc(Cl)c3)nc(N[C@@H]3CCCC[C@@H]3N)nc21`, the Tm shift is 3.79 Celsius. Same read-out and setting: the same measure for `O=C1C(=O)C(c2cc(O)c(O)c(O)c2)Oc2cc(O)cc(O)c21` (configuration not stated): 3.74 Celsius.

Still in this test, the particulars now being: recombinant CSNK1G2, DSF thermal shift, at 10 µM, protein 2 µM, buffer 10 mM HEPES, pH 7.5, NaCl 150 mM, stronger effect = higher value.
`Nc1nc(Nc2cccc(Cl)c2)sc1C(=O)c1ccc(F)cc1`: the Tm shift is 3.4 Celsius. The same measure, in the same setting: next, `Cc1cc(Nc2nc(-c3ccccc3)nc3ccccc23)n[nH]1`: 3.3 Celsius; `Cc1nc(N)sc1-c1ccnc(Nc2cccc(-n3oo3)c2)n1`: 4 Celsius. As to `COc1ccc(Nc2nc(N)c(C(=O)c3ccc(Cl)cc3)s2)cc1`, the Tm shift is 3.1 Celsius. As for `COc1ccc(Nc2nc(N)c(C(=O)c3ccc(OC)cc3)s2)cc1`, the Tm shift was 4.3 Celsius.

For the molecule `CC(C)n1cnc2c(Nc3cccc(Cl)c3)nc(NCCO)nc21`, the Tm shift is 4.7 Celsius. Same read-out and setting: the same measure for `O=c1c(O)c(-c2ccc(O)c(O)c2)oc2cc(O)cc(O)c12`: 3.1 Celsius. Still for that read-out and setting: the same measure for `NC1=N/C(=C2/CCNC(=O)c3[nH]c(Br)cc32)C(=O)N1`: 4.4 Celsius. The same measure, in the same setting: the same measure for `CSc1nc(-c2ccnc(NC(C)c3ccccc3)c2)c(-c2ccc(F)cc2)[nH]1` (configuration not stated): 3.4 Celsius; for `Nc1ncnc2c1c(I)cn2[C@@H]1O[C@H](CO)C(O)C1O` (some centres not stated): 3.3 Celsius. `O=c1[nH]c(O)c2c1c1c3ccccc3nc1n1cncc21`: the Tm shift is 3.6 Celsius.

As for `O=Nc1c(-c2c(O)[nH]c3ccc(I)cc23)[nH]c2ccccc12`, the Tm shift was 3.6 Celsius. Same read-out and setting: next, `NC(=O)c1ccc(-c2nc(-c3ccc4c(c3)OCCO4)c(-c3ccccn3)[nH]2)cc1`: 4.3 Celsius; `O=Nc1c(-c2c(O)[nH]c3ccc(S(O)(O)O)cc23)[nH]c2ccccc12`: 3.1 Celsius.
